{"source": "patent US20020197281A1", "about": "“Composition cantaining a peptide and a pigment and the use thereof in darkening the skin” (priority 2001, published 2002)", "key": {"[1]": {"system": "keratinocyte-melanocyte co-cultures (Human HaCaT keratinocytes, Human primary melanocytes)", "experiment": "Induced pigmentation in keratinocyte-melanocyte co-cultures (DOPA staining, computerized image analysis)", "format": "cell-based", "settings": "three daily treatments; for Mean area: DOPA-stained relative pigmented area; for % increase: normalized to control", "protocol": "The peptides Peptide 1 and Peptide 3 and various pigments were tested, alone or in combination, with keratinocyte-melanocyte cultures for their effect on cell pigmentation, using DOPA staining and computerized image analysis. The pigments that were tested were the pigmented natural extracts Bearberry extract from Alban Muller International (Vincennes, France) and Hedychium spicatum extract sold as Kapur Kachali from Amsar Private Limited (Indore, India), copper chloride from Sigma (St. Louis, Mo.) and the water-soluble melanin derivatives Melasyn-100™ from San-mar laboratories, Inc. (Elmsford, N.Y.) and MelanZe™ from Zylepsis (Ashford, Kent, United Kingdom). The pigments were tested at concentrations ranging from 0.0001%(W/V) to 1%(W/V) and the peptides were tested at 50 μM.\nThe assay was conducted in the following manner. Human HaCaT keratinocytes (Boukamp P., et al., J Cell Biol 106, 3, 761-771 (1988)) were maintained in Dulbecco's Modified Eagle's Medium (DMEM) containing 10% fetal bovine serum (FBS), 4.5 mg/ml glucose, 2 mM L-glutamine, 50 U/ml penicillin and 50 μg/ml streptomycin (Life Technologies, Gaithersburg, Md.). Cells were maintained at <80% confluency in 5% CO2 (v/v) and were used in experimental procedures up to culture passage 15. Human primary melanocytes (Clonetics, San Diego, Calif. or Cascade Biologics, Portland, Oreg.) were maintained according to manufacturer's instructions. To establish keratinocyte-melanocyte co-cultures, 6×10^4 melanocytes were plated in each well of a 24 well plate and maintained according to manufacturer's instructions.\nMelanocytes were rinsed three times with melanocyte growth media without PMA and keratinocytes (6×10^4) were plated to establish the co-cultures in this media. Co-cultures were treated for three days with test peptides and pigments, and assayed for cell viability and pigment level on the forth day. Cell viability was assayed using alamarBlue™ (Acumed International, West Lake, Ohio) following manufacturer's instructions. No change in viability was observed following three daily treatments with all tested material. All in vitro experiments were performed in triplicates, and were repeated at least three times.\nFollowing three daily treatments, the co-cultures were briefly fixed (10% buffered formalin from Fisher Scientific, 15 minutes), washed three times with Phosphate-buffered saline (PBS, from Life Technologies) and stained with L-3,4-Dihydroxyphenylalanine (DOPA, from Sigma, St. Louis, Mo.) 0.1% in PBS, for 5 hours at 37° C., followed by two PBS washes and formalin (10%, overnight) fixation. DOPA is a substrate for tyrosinase, therefore an increase in staining represents increased tyrosinase activity and pigment production. DOPA-stained monolayers were used for image analysis. All images were obtained and analyzed with Image Pro Plus 3.0 software (Media Cybernetics, Silver Spring, Md.). Parameters measured were surface area of stained material within melanocyte and keratinocytes and the total surface area of the cells in the culture, and the relative pigmented area was calculated. A value of 100% was assigned to untreated controls, and values of treatment groups were normalized to their relevant controls. In all experiments there was no difference between PBS-treated cells and untreated controls. Data are presented with standard deviation (SigmaPlot® 5.0, SPSS Science, Chicago, Ill.).\nForskolin (Sigma, St. Louis, Mo.), a known inducer of pigmentation, served as a positive control and a reference point. Forskolin was administered at 1% (W/V)."}, "[2]": {"system": "Dark skinned Yucatan microswine", "experiment": "Induced pigmentation in vivo, F&M-stained skin sections of topically treated swine", "design": "key: −1: Slight lightening; 0: No change; 1: Minimal increase in pigment deposition; 2: Increased pigment deposition; 3: Strong increase in pigment deposition, some increase in caps; 4: Strong increase in pigment deposition, strong increase in caps", "settings": "topical twice a day, five days/week, eight or nine weeks; peptides 250 or 500 μM, pigments 1% or 5% (W/V), positive controls 1% (W/V); average of all sites of responsive swine", "protocol": "Compositions of the present invention were tested for their ability to induce in vivo pigmentation in skin cells in the following experiment. Dark skinned Yucatan microswine (Charles River, Portland, Me.) were housed in appropriately sized cages in an environmentally controlled room with a 12-hour light-12-hour dark photoperiod and supplied with food and water ad libitum. Animal care was based on the “Guide for the Care and Use of Laboratory Animals”, NIH Publication No. 85-23. Twenty μl of test peptides were applied topically, twice a day, five days/week, for eight or nine weeks, on the dorsum of the swine. Treatments of individual swine were always arranged in a head to tail order on one side, and in a tail to head order on the other side of the animal. Biopsies were taken using standard techniques.\nSections from the skin biopsies were stained with Hematoxylin and Eosin (H&E), or with Fontana-Mason (F&M), using standard procedures (Sheenan D C, Hrapckak B B, eds., Theory and Practice of Histo-technology. p. 223, 277, The C.V. Mosby Co., St. Louis (1980)). F&M staining identifies silver nitrate reducing molecules. In skin, this non-specific stain identifies primarily melanin. At least three sections per biopsy were processed. Each experiment was repeated at least three times.\nSwine were treated with either: the known skin darkening agent forskolin (Sigma) or with a Coleus forskoli extract (ATZ Naturals, Englewood Cliffs, N.J.) which contains forskolin, as a positive control at 1% (W/V); pigments at 1% or 5% (W/V); peptides of this invention at 250 μM or 500 μM; and combinations of such peptides at 250 μM or 500 μM with pigments at 1% (W/V). Pigments tested include pigmented natural extracts (i.e., Bearberry extract and Hedychium spicatum extract) and synthetic compounds (i.e., the soluble melanin compound Melasyn-100™). These test compounds were dissolved in ethanol: propylene glycol 70:30 (v/v). […]\nF&M-stained histological skin sections were evaluated for the change in pigment deposition within the treated site. […]"}}}
{"compound": "[Cl][Cu][Cl]", "note": "[CuCl2, copper chloride]", "values": [{"measurement": "Mean area", "setting": "[1]; pigment alone 0.001% (W/V)", "result": 0.064}, {"measurement": "% increase", "setting": "[1]; pigment alone 0.001% (W/V)", "result": 220, "unit": "%"}]}
{"compound": "C=C[C@@]1(C)CC(=O)[C@]2(O)[C@@]3(C)[C@@H](O)CCC(C)(C)[C@@H]3[C@H](O)[C@H](OC(C)=O)[C@@]2(C)O1", "note": "[Forskolin, reference compound]", "values": [{"measurement": "Score (change in pigment deposition)", "setting": "[2]", "result": 1}, {"measurement": "Mean area", "setting": "[1]; positive control 1% (W/V)", "result": 0.067}, {"measurement": "% increase", "setting": "[1]; positive control 1% (W/V)", "result": 231.0, "unit": "%"}]}
{"compound": "H2-Leu-Ile-Gly-Arg-NH2 (H-LIGR-NH2) [Peptide 1]", "values": [{"measurement": "Score (change in pigment deposition)", "setting": "[2]", "result": "1-2"}, {"measurement": "Mean area", "setting": "[1]; peptide alone 50 μM", "result": 0.080}, {"measurement": "% increase", "setting": "[1]; peptide alone 50 μM", "result": 279, "unit": "%"}]}
{"compound": "H2-Ser-Leu-Ile-Gly-Arg-Leu-NH2 (H-SLIGRL-NH2) [Peptide 3]", "values": [{"measurement": "Score (change in pigment deposition)", "setting": "[2]", "result": "2-3"}]}
